Reference: PubChem BioAssay AID1902 (Broad Institute, 2009)
Several values for one entry are separate records, joined by “and”; a condition that tells them apart may be missing. Equal values may be shown once. Activity calls are given as the source filed them.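 The calls were made as follows: active = EC50 no more than a set limit of log units above the highest dose; inactive = the rest.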

Target: S. pyogenes SKKanGAS, kanamycin survival, BacTiterGlo, 6 h
Test: SKKanGAS survival reduction under kanamycin, dose response, streptokinase promoter inhibitor project, SKKanGAS strain, luminescence, dose confirmation (AID 1902);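 also: lower survival reflects blocked streptokinase promoter driving kanamycin resistance gene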

Structure (SMILES) | EC50
C/C(=N\NC(=O)COc1ccc(C)cc1C(C)C)c1cc2ccccc2o1 | 11 µM
O=C1/C(=C\c2cc([N+](=O)[O-])ccc2O)SC(=S)N1Cc1ccc(Cl)cc1 | 2.18 µM
CC1(C)CC(=O)C(C2C3=C(CC(C)(C)CC3=O)Oc3c(Br)cc(Br)cc32)=C(O)C1 (centres undefined) | 4.06 µM
N#Cc1ccc(-c2ccccc2)nc1SCC(=O)c1cc2ccccc2oc1=O | 0.596 µM
O=C(COc1cccc(Cl)c1)Nc1ccccc1N1CCCCC1 | 5.29 µM
CCOC(=O)c1cnc(-n2nc(C)cc2C)nc1NC1CCCC1 | 2.58 µM
COc1ccc(/C=C/c2ccc3c(Br)ccc(O)c3n2)cc1 | 0.785 µM
Cc1cc(NCc2ccccn2)n2nc(C)c(-c3ccc(Cl)cc3)c2n1 | 4.36 µM
CCCOC(=O)c1ccc(Oc2c(-c3ccc(OCC)cc3O)n[nH]c2C)cc1 | 2.02 µM
CN1c2ccccc2C(C)(C)C12C=Nc1c(ccc3ccccc13)O2 (centres undefined) | 2.16 µM
CCCc1cc(=O)n2[nH]c(C)c(-c3ccc(Cl)cc3)c2n1 | 5.81 µM
COc1ccc(/C=C/c2ccc3cccc(O)c3n2)cc1Br | 0.419 µM
COC(=O)CSc1nnc(-c2cnccn2)n1C | > 15 µM (inactive)
O=C(/C=C/c1ccccc1)NC(=S)NNC(=O)c1ccco1 | 2.76 µM
Cc1ccc(Cc2cnc(N3C(=N)SC(C)C3=O)s2)cc1 (centres undefined) | 0.298 µM
COc1cc(OC)cc(C(=O)NC(=S)NNC(=O)Cc2cccs2)c1 | 0.716 µM
CC(=O)Nc1nnc(S(=O)(=O)N2CCN(c3ccc(Cl)cc3[N+](=O)[O-])CC2)s1 | > 15 µM (inactive)
CCCOc1ccc(/C(O)=C2/C(=O)C(=O)N(c3ccccn3)C2c2ccc(OC)cc2)cc1C (centres undefined) | 6.28 µM
O=C(NNC(=S)NC(=O)c1cn(-c2ccccc2)nc1-c1ccccc1)c1ccncc1 | 0.151 µM
Cc1ccc(O)c(NC(=S)NC(=O)c2ccc(-c3ccc(Cl)cc3)o2)c1 | 0.221 µM
CCc1nc(SCC(=O)N2c3ccccc3CC2C)c2c(C)c(C)sc2n1 (centres undefined) | 8.61 µM
COc1ccccc1Oc1cn[nH]c1-c1ccc(OCC(=O)NN)cc1O | > 15 µM (inactive)
O=C(NC(=S)NNC(=O)c1ccccc1[N+](=O)[O-])c1ccc(Br)cc1 | 2.24 µM
C=CC1=C(C(=O)O)N2C(=O)C(NC(=O)Cc3ccccc3)C2SC1 (centres undefined) | 0.13 µM
Cc1ccc(OCCSc2nc(NC(C)C)nc(NC(C)C)n2)cc1 | 4.4 µM
Oc1[nH]c2ccccc2c1N=NC(=S)N1CCOCC1 | 0.273 µM

Structure (SMILES) | EC50
CC(C)C(Sc1nc(-c2ccccc2)cc(-c2ccccc2)c1C#N)C(=O)O (centres undefined) | 2.04 µM
CC(C)c1ccc(NC(=O)NC(C)c2ccc3c(c2)OCO3)cc1 (centres undefined) | > 15 µM (inactive)
Cc1ccc(/C(O)=C/C(=O)C(=O)NC23CC4CC(CC(C4)C2)C3)cc1 | 2.06 µM
Cc1ccc(C(=O)NNC2=Nc3cccc4cccc2c34)cc1 | 3.14 µM
CCCCCCCCCCOC(=O)Cn1c(COc2ccccc2)[n+](C)c2ccccc21 | 7.96 µM
COc1ccccc1OCC(=O)Nc1c2c(nn1-c1ccc(F)cc1)CS(=O)(=O)C2 | > 15 µM (inactive)
COc1ccc(Oc2nc(-c3ccccn3)ncc2OC)cc1 | 1.45 µM
CCOC(=O)c1sc(=S)n2c1[nH]c(=O)c1ccc(C(=O)OC)cc12 | 3.81 µM
Cc1ccc(C)c(S(=O)(=O)N2CCN(Cc3ccc(O)c4ncccc34)CC2)c1 | 2.8 µM
O=C(Nc1ccc(OCC(F)(F)C(F)F)c(C(F)(F)F)c1)c1ccc(Cl)cc1 | 3.62 µM
O=C(/C=C/c1ccccc1)NC(NC(=S)Nc1ccc(Cl)cc1)C(Cl)(Cl)Cl (centres undefined) | 4.16 µM
CC(=O)NC[C@H]1CN(c2ccc(N3CCOCC3)c(F)c2)C(=O)O1 | 0.158 µM
CC(C)n1cnc2c(NCc3ccccc3)nc(NCc3ccccc3)nc21 | 3.06 µM
CCCCCCCCCCOC(=O)Cn1c(COc2cccc(C)c2)[n+](C)c2ccccc21 | 2.83 µM
Cc1cccc(OCC(=O)Nc2ccccc2N2CCCCC2)c1C | 4.8 µM
O=C(Cn1nc2ccccc2n1)N/N=C/c1cc([N+](=O)[O-])ccc1O | 0.73 µM
COc1cccc(N2C(N)=NC(N)=NC2(C)C)c1 | 0.318 µM
Cc1ccc(C(=O)C(c2ccccc2)N2Cc3ccccc3C2=N)cc1 (centres undefined) | 5.75 µM
CCCc1cc(NCc2ccccn2)n2nc(C)c(-c3ccccc3)c2n1 | 6.4 µM
Cc1cc([N+](=O)[O-])cc(/C=N/n2c(C)nc3ccccc3c2=O)c1O | 4.07 µM
CO[C@H]1C=CO[C@@]2(C)Oc3c(C)c(O)c4c(O)c(c5c(nc6cc(C)ccn65)c4c3C2=O)NC(=O)C(C)=CC=C[C@H](C)[C@H](O)[C@@H](C)[C@@H](O)[C@@H](C)[C@H](OC(C)=O)[C@@H]1C | < 0.06 µM
Cc1ccc2nc(N3C(=O)C(O)=C(C(=O)c4cc5ccccc5o4)C3c3cccs3)sc2c1 (centres undefined) | 1.22 µM
O=[N+]([O-])c1ccc(O)c(/C=N/Nc2ncnc3c2cnn3-c2ccccc2)c1 | 0.742 µM
CCOC(=O)c1ccc(Nc2nc(C)nc3c2nnn3Cc2ccccc2)cc1 | 6.69 µM
O=C(NCC1CCCO1)c1cc2c([nH]c3ccccc32)c(-c2cccc(Cl)c2)n1 (centres undefined) | 4.27 µM
CCC(C)Sc1cccc(-c2nc3ccc(C)cn3c2NCc2ccccc2)c1 (centres undefined) | 3.24 µM

Structure (SMILES) | EC50
Cc1c(C(=O)N/N=C/c2ccc(Cl)cc2)[nH]c2ccc(Cl)cc12 | 2.71 µM
CC(C)=CCc1c2c(c(O)c3c(=O)c4c(oc13)-c1cc(O)c(O)cc1OC4C=C(C)C)C=CC(C)(C)O2 (centres undefined) | 1.88 µM
O=C(NCc1nnc(SCC(=O)N2CCOCC2)o1)c1c(F)cccc1F | > 15 µM (inactive)
CCOc1c(OC(C)=O)ccc(/C=C/c2ccc3cccc(OC(C)=O)c3n2)c1[N+](=O)[O-] | 1.6 µM
S=c1[nH]nc(C2CCCCC2)n1/N=C/c1cccc(Cl)c1Cl | 5.59 µM
Nc1[nH]n2c(=O)cc(-c3ccccc3)nc2c1N=Nc1ccc2c(c1)OCO2 | 2.25 µM
CCOC(=O)c1ccc(-c2ccc3c(=O)c4ccccc4n(C)c3c2)cc1F | 4.15 µM
COc1cc(OC)c([C@H]2C=C(C)[C@H]3C[C@@H]2C3(C)C)c(OC)c1 | 2.6 µM
CCCCCCCCCCCCCCCCn1cc[n+](C)c1 | 1.9 µM and 2.05 µM
CCCCNc1c(-c2ccc(-c3ccc(C(C)=O)cc3)c(OC)c2)nc2cnccn12 | 5.58 µM
CCC(C(=O)N1CCC(N2CCCCC2)CC1)n1nc(C)c2sc3ccccc3c2c1=O (centres undefined) | > 15 µM (inactive)
O=C(Nc1ccc(Br)c(C(F)(F)F)c1)c1ccc(C(F)(F)F)cc1 | 1.86 µM
COc1cc(C(=O)NS(=O)(=O)c2ccccc2C)ccc1Cc1cn(C)c2ccc(NC(=O)OC3CCCC3)cc12 | 2.05 µM
CC(=O)O[C@H]1C[C@@]2(C)[C@@H](C[C@@H](O)[C@H]3[C@@]4(C)CC[C@@H](O)[C@@H](C)[C@@H]4CC[C@@]32C)/C1=C(\CCC=C(C)C)C(=O)O | 0.177 µM
CC1C/C(=N\NC(=S)NCc2ccccc2)CC(C)(C)C1 (centres undefined) | 3.96 µM
COc1ccc(Cc2n[nH]c(=S)n2NC(=O)Nc2ccc(Cl)c(Cl)c2)cc1 | 4.08 µM
COc1ccc(O)c(-c2cc(-c3cccc(Br)c3)n[nH]2)c1 | 9.97 µM
CCOC(=O)c1c(S(=O)(=O)N2CCCCCC2)c(C)n(C)c1C | > 15 µM (inactive)
Cc1ccc(C(=O)Nc2nnc(S(=O)(=O)N3CCN(c4ccc(F)cc4)CC3)s2)cc1 | > 15 µM (inactive)
O=C(Nc1nc(-c2ccccn2)cs1)c1cccc(-n2cnnn2)c1 | 2.3 µM
O=C(Nc1scc(-c2ccc(Br)cc2)c1C(=O)O)c1ccccc1F | 1.86 µM
COc1ccccc1-c1cc(=O)c2c(O)ccc([N+](=O)[O-])c2o1 | 2.56 µM
O=C(C1CCCCC1)N1CCC(c2nc3c(nnn3Cc3c(F)cccc3Cl)c(=O)[nH]2)CC1 | 3.79 µM
CC(=O)NC(=S)Nc1ccc(NC(=S)NC(=O)/C=C/c2ccco2)cc1 | 8.72 µM
Cc1cccc(OCCCCc2c(C)n[nH]c2C)c1C | 4.74 µM
COCCCNC(=S)NNC(=S)Nc1cccc(Cl)c1 | > 15 µM (inactive)

Structure (SMILES) | EC50
COc1cccc(C2CC(c3cccs3)=NN2C(=O)CSc2nc3c(cnn3-c3ccc(F)cc3)c(=O)[nH]2)c1OC (centres undefined) | 2.03 µM
O=C(NCc1ccccn1)C(=O)Nc1nc(C23CC4CC(CC(C4)C2)C3)cs1 | 1.65 µM
Cc1cc(C)c(S(=O)(=O)/N=C2\C=C(Nc3ccc(C(=O)O)cc3)C(=O)c3ccccc32)c(C)c1 | 1.16 µM
O=c1c2ccccc2[se]n1-c1ccccc1 | 1.52 µM
O=C(N/N=C/c1cc(Cl)cc([N+](=O)[O-])c1O)c1ccccc1NS(=O)(=O)c1cccs1 | 12 µM
COc1cc(/C=N/NC(=O)c2cc(-c3c(C)nn(-c4ccccc4)c3C)n[nH]2)ccc1O | 2.97 µM
Cc1ccc(NC(=O)C(OC(=O)c2ccc(NC(N)=O)cc2)c2ccccc2)cc1Cl (centres undefined) | 6.52 µM
Cc1nc(NC(=O)c2ccc(Cl)cc2)sc1-c1csc(Nc2cccc(F)c2)n1 | 2.69 µM
CCOc1ccccc1NC(=O)NCc1ccc2c(c1)OCO2 | > 15 µM (inactive)
CC1CCN(C(=O)c2ccc3c(c2)NC(=O)/C(=C/c2ccccc2)S3)CC1 | 2.66 µM
Cc1ccc(C(=O)N2CCOCC2)cc1Cl | > 15 µM (inactive)
FC(F)(F)c1cccc(-c2cc3ccccc3nc2N2CCCC2)c1 | 3.6 µM
CC(C)=CCc1cc([C@@H]2COc3c(ccc4c3C=CC(C)(C)O4)C2)c(O)cc1O | 2.94 µM
O=S(=O)(Cc1cc(NCc2ccccc2)nc(-c2ccccn2)n1)c1ccccc1 | 0.808 µM
COc1ccc(C(=O)NC(=S)Nc2ccc(N3CCOCC3)c(Cl)c2)cc1[N+](=O)[O-] | 1.97 µM
COc1c(CC=C(C)C)cc(C2CC(=O)c3c(O)cc(O)cc3O2)c(CC=C(C)C)c1O (centres undefined) | 1.87 µM
Cc1cccc(NCc2nc3ccccc3n2Cc2ccccc2)c1 | 2.75 µM
C/C(=N/NS(=O)(=O)c1ccc(Cl)cc1)c1cccc(NC(=O)c2ccc(Cl)cc2Cl)c1 | 4.79 µM
CC(C)C[C@H](NC(=O)c1[nH]cnc1C(=O)N[C@@H](Cc1ccccc1)C(=O)OC(C)(C)C)C(=O)OC(C)(C)C | 2.1 µM
CC(Oc1cccc(Cl)c1)C(=O)Nc1ccccc1N1CCCCC1 (centres undefined) | 3.04 µM
COc1cccc(NC(=O)Nc2nc(SC(C)(C)C)ns2)c1 | 8.16 µM
CCC1C(=NO)C(CC)C(c2ccccc2)NC1c1ccccc1 (centres undefined) | 3.34 µM
Cc1cc(N2CCC(C)CC2)nc(-n2nc(C)cc2C)n1 | 7.73 µM
CC(C)(C)c1cc(NCc2ccccn2)n2ncc(-c3ccc(Cl)cc3)c2n1 | 1.34 µM
O=C(COc1ccccc1-c1ccccc1)N/N=C/c1ccc2ccccc2c1 | 6.47 µM
OC(CNCc1ccco1)Cn1c2ccc(Br)cc2c2cc(Br)ccc21 (centres undefined) | 5.85 µM
